Patent US20240358727A1, “MICROSCALE THERMOPHORESIS TO EVALUATE CHANNEL LIPID INTERACTIONS AND METHODS OF TREATING NAV CHANNELS RELATED DISEASES” (Northeastern University, priority 2023, published 2024)
Entries after “also recorded” stand apart in the source; their conditions may differ.

Target: T1, Nav1.5 channel currents (INa, ILATE) in M3q iPS-CMs (Homo sapiens, UniProt Q14524)
T1 construct: host or cells: human iCell^2 iPS cardiomyocytes (transfected with M3q DREADD in A5; endogenous AT1 receptor in A7)
T1 sequence (Q14524 whole entry): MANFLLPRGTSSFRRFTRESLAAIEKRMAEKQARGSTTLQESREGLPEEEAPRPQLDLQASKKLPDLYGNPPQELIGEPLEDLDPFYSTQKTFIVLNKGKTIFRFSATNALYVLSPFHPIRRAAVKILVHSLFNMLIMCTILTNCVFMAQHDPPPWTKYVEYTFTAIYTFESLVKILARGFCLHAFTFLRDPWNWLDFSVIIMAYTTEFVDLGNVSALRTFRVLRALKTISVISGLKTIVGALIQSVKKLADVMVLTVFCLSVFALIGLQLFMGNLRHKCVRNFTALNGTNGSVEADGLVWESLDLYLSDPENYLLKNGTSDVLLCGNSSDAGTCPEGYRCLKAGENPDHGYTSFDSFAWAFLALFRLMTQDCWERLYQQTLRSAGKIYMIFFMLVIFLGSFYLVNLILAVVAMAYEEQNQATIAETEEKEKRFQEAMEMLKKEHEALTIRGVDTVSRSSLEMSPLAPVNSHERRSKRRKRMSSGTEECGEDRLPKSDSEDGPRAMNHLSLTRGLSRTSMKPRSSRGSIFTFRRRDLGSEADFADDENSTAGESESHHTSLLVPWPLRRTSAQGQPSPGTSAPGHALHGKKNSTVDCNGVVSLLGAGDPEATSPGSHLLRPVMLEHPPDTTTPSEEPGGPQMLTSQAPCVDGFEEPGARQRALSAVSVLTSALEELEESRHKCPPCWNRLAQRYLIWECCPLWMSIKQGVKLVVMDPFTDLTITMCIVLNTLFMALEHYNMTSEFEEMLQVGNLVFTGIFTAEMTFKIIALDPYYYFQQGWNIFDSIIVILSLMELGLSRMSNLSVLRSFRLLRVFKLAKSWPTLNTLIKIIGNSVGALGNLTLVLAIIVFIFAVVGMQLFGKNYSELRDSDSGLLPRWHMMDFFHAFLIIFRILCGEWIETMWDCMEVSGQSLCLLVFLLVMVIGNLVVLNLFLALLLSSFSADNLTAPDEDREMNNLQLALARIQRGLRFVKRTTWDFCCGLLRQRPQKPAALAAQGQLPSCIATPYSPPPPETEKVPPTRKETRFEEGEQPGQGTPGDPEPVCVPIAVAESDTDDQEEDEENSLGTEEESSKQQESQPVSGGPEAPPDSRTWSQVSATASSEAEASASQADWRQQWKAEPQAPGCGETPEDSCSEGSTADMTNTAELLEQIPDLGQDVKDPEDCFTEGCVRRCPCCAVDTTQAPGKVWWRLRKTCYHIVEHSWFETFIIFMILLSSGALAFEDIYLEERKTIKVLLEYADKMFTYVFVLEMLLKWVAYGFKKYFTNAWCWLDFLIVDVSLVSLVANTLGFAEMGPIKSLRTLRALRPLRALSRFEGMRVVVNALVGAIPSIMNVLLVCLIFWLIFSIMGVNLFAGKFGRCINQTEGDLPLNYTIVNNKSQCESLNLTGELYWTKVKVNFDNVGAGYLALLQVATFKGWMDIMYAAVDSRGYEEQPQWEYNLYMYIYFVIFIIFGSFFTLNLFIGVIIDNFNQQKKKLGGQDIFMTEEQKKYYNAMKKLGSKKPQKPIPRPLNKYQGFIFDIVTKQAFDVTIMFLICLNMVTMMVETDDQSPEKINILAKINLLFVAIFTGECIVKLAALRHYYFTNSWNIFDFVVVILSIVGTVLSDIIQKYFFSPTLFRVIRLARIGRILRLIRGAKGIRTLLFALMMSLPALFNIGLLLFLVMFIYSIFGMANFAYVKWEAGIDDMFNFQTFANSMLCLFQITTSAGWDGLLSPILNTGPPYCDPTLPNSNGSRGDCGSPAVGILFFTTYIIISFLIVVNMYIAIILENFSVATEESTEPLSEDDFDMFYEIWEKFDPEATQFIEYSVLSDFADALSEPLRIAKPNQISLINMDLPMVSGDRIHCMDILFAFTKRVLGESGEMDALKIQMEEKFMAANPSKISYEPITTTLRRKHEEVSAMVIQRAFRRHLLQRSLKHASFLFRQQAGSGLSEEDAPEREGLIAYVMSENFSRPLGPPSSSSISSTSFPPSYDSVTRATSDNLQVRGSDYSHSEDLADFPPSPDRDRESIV
Experiment: Whole-cell patch-clamp of INa and ILATE in M3q-DREADD iPS-CMs activated with CNO
Type: cell-based
Settings: 100 nM CNO
Experimental: Control is CNO application to cells with no M3q. Mean±SD % fluorescence change for 20 cells per group; an example photobleaching montage is inset. […] Leftwards shifts in each parameter are precluded by U73122 or by 200 μM diC8-PIP2 in the pipette but are not sensitive to staurosporine or BAPTA. The cells were perfused with an extracellular solution containing (in mM): 130 NaCl, 5 CsCl, 1.2 MgCl2, 1.5 CaCl2), 8 Glucose, 10 HEPES (pH7.4). […] nitrendipine was added to the recording solution to block Ca^2+ flux through Cav channels. Patch pipettes with a resistance of 2.5-4 MQ are filled with a solution containing (in mM): 60 CsCl, 80 CsF, 2 MgCl2, 10 EGTA, 5 Na2ATP, 5 HEPES (pH 7.4). Currents were low pass (Bessel) filtered at 9 kHz and digitized at 50 kHz and were collected from cells with a series resistance <15 MQ; this was compensated by 70%.
Results. Studies are designed to evaluate if hydrolysis of PIP2 modulates Nav1.5 channel currents in cardiomyocytes. To perform these experiments, we used human iPS cardiomyocytes (iCell^2 iPS-CMs) from Fuji-Film Cellular Dynamics. These iPS-CMs are a valuable model system for human cardiomyocytes that retain many of the key characteristics of the native cells. Here, we transfected the iPS-CMs to express the Gαq-coupled M3q Designer Receptors Exclusively Activated by Designer Drugs (DREADD) receptor. We use a magnetic transfection system from Oz Biosciences that we have previously employed with cardiomyocytes. First, we tested the efficacy of M3q to hydrolyze PIP2 in our model system. To accomplish this, we studied uncoupling of the PIP2 biosensor iRFP-PHPLCδ1 from the plasma membrane in response to chemogenic activation of M3q by 100 nM clozapine N-oxide (CNO, Tocris Biosciences).
These findings are consistent with our prior observations and the work using optogenetically activated PI-phosphatases to deplete PIP2 in HEK293 cells […] Xenopus laevis oocytes. […] Having established a time frame for PIP2 hydrolysis in our system, we used whole-cell patch-clamp to study INa in paired experiments, before and after chemogenic activation of M3q. Applying 100 nM CNO evoked a leftward shift in the current-voltage (I-V) relationship of INa such that peak INa shifted from −25 to −35 mV. At −35 mV, the peak current-density increased from −220±5 pA/pF to −266±4 pA/pF at −35 mV (n=8, P<0.001, paired Student's t-test). […] However, in contrast to our findings with Nav1.4, activating M3q signaling also left-shifted the steady state inactivation curve of Nav1.5 (V½SSI), from −81.4±2 to −89.7±2 mV (n=8, P<0.01, paired t-test; FIGS. 2C, 2D). These studies indicate that Nav1.5 channels are regulated by hydrolysis of PIP2 and that there are distinctions between PIP2 regulation of Nav1.5 and Nav1.4.
Next, we studied the effect of M3q-activation on ILATE by recording currents evoked by a 400 ms depolarizing pulse to −20 mV before and during receptor activation. The magnitude of ILATE represents the mean current 150-200 ms after peak INa and is expressed as a percentage of peak INa. […] The effects of M3q activation on V½ACT, V½SSI, and the development of ILATE were not affected by staurosporine (1 μM, 1-hour preincubation) or BAPTA (10 mM in the recording pipette), making a role for IP3 or DAG unlikely. […] Similar data were obtained for Nav1.5 expressed with Navβ1 and the M3q-DREADD receptor in HEK293T cells. This experiment validates that the findings are not restricted to a particular model system or cellular environment.
Measure modulation in INa and ILATE by endogenous Gαq signaling. Like native cardiomyocytes, human iPS-CMs express AT1 receptors. Here, the effects of Ang II (Tocris) on Nav1.5 channel function in iPS-CMs is tested using four whole-cell patch-clamp recording protocols. […]

## CCCCCCCC(=O)OC[C@H](COP(=O)(O)O[C@@H]1[C@H](O)[C@H](O)[C@@H](OP(=O)(O)O)[C@H](OP(=O)(O)O)[C@H]1O)OC(=O)CCCCCCC [diC8-PIP2]
200 μM diC8-PIP2 in pipette
  effect on CNO-evoked increase in ILATE: precluded
  effect on CNO-evoked leftwards shifts in V½ACT and V½SSI: precluded
Staurosporine 1 μM 1-hour preincubation, BAPTA 10 mM in pipette, U73122 5 μM, diC8-PIP2 200 μM in pipette
  effect on CNO (M3q activation) effects on V½ACT, V½SSI and ILATE: blocked; also recorded: abolished
